Measured values as given in patent publication US7745424B2, “Alkane diol derivatives as therapeutic agents for the treatment of bone conditions” (The Univeristy Court of the University of Aberdeen, priority 2001, dated 2010).

Columns and labels:
[1] = test system: macrophage cell line J774; experiment: MTT macrophage J774 viability assay; format: cell-based; details: for IC50: Mus musculus, macrophage J774 viability; for IC50 / macrophage J774 viability, activity in words: MTT assay; for macrophage J774 viability, activity in words: range of concentrations (FIGS. 4-7)
Description: MTT (3-(4,5-dimethylthiazol-2-yl)-2,5-diphenyl tetrazolium bromide) has an […] colour and is soluble in the medium used for cell culture. The mitochondrial enzyme succinate dehydrogenase acts upon MTT in living cells to produce the insoluble purple coloured formazan. The amount of formazan produced, as measured by UV/visible spectroscopy, is proportional to the number of viable cells.
The medium was carefully removed using a needle without dislodging the crystal layer. 100 μL acidified isopropanol (4 M HCl 1:100 v/v in isopropanol) was added to each well and the purple crystals allowed to dissolve. The absorbance was measured in a plate reader at 540 nm, with 690 nm as reference. The controls were a deep purple colour, indicating a high number of live cells.
Addition of Compounds. […] These stock solutions were then diluted 100× in culture medium.

[2] = test system: macrophage cell line J774; experiment: Alamar Blue macrophage J774 viability assay; details: Mus musculus, J774, 72 h, read-out: IC50 (μM) Alamar Blue

SMILES | IC50 [1] | IC50 [2] | also measured
CC(=O)OCCCCOC(C)=O [ABD-0006, 1,4-Butanediol di(acetic acid)Ester] | > 100 µM | – | –
CCCC(=O)OCCCCOC(=O)CCC [ABD-0007, 1,4-Butanediol di(butanoic acid)Ester] | > 100 µM | – | –
O=C(OCCCCO)c1ccccc1 [ABD-0008, 1,4-Butanediol mono(benzoic acid)Ester] | > 100 µM | – | –
O=C(OCCCCOC(=O)c1ccccc1)c1ccccc1 [ABD-0009, 1,4-Butanediol di(benzoic acid)Ester] | > 100 µM | – | –
O=C(Cc1ccccc1)OCCCCOC(=O)Cc1ccccc1 [ABD-0014, 1,4-Butanediol di(phenylacetic acid)Ester] | > 100 µM | – | –
O=C(Cc1ccccc1)OCCCCCCOC(=O)Cc1ccccc1 [ABD-0017, 1,6-Hexanediol di(phenylacetic acid)Ester] | > 100 µM | – | –
O=C(OCCCCOC(=O)C1CCCCC1)C1CCCCC1 [ABD-0019, 1,4-Butanediol di(cyclclohexanecarboxylic acid)Ester] | > 100 µM | – | –
O=C(OCCCCO)C(c1ccccc1)(c1ccccc1)c1ccccc1 [ABD-0028, 1,4-Butandiol mono(triphenylacetic acid)Ester] | 20 µM | 30 µM | macrophage J774 viability, activity in words [1]: more potent
O=C(OCCCCCO)C(c1ccccc1)(c1ccccc1)c1ccccc1 [ABD-0030, 1,5-Pentandiol mono(triphenylacetic acid)Ester] | 40 µM | – | –
O=C(OCCCCCCO)C(c1ccccc1)(c1ccccc1)c1ccccc1 [ABD-0031, 1,6-Hexandiol mono(triphenylacetic acid)Ester] | 40 µM | – | –
O=C(Cc1cccc2ccccc12)OCCCCO [ABD-0032, 1,4-Butanediol mono(naphth-1-yl-acetic acid)Ester] | > 100 µM | – | activity at 100 μM concentration [1]: little activity
COc1ccc(CC(=O)OCCCCO)cc1OC [ABD-0033, 1,4-Butanediol mono(homoveratric acid)Ester] | > 100 µM | – | activity at 100 μM concentration [1]: little activity
O=C(OCCCCO)c1ccc(Cc2ccccc2)cc1 [ABD-0034, 1,4-Butanediol mono(4-benzylbenzoic acid)Ester] | > 100 µM | – | activity at 100 μM concentration [1]: little activity
CCCCOC(=O)C(C)c1ccc(CC(C)C)cc1 (stereo not drawn) [ABD-0035, Butyl [2-(4-isobutylphenyl)Propionic acid] ester] | 72 µM | – | –
CC(C)Cc1ccc(C(C)C(=O)OCCCCO)cc1 (stereo not drawn) [ABD-0036, 1,4-Butanediol mono[2-(4-isobutylphenyl)Propionic acid]ester] | 52 µM | – | macrophage J774 viability, activity in words [1]: most active
CC(C)Cc1ccc(C(C)C(=O)OCCCO)cc1 (stereo not drawn) [ABD-0037, 1,3-Propanediol mono[2-(4-isobutylphenyl)Propionic acid]ester] | 72 µM | – | –
CC(C)Cc1ccc(C(C)C(=O)OCCCCCO)cc1 (stereo not drawn) [ABD-0038, 1,5-Pentanediol mono[2-(4-isobutylphenyl)Propionic acid]ester] | 68 µM | – | –
CC(C)Cc1ccc(C(C)C(=O)OCCCCCCO)cc1 (stereo not drawn) [ABD-0039, 1,6-Hexanediol mono[2-(4-isobutylphenyl)Propionic acid]ester] | 72 µM | – | –
CCCCOC(=O)Cc1ccc(-c2ccccc2)cc1 [ABD-0040, Butyl (biphenyl-4-yl-acetic acid) ester] | > 100 µM | – | –
O=C(Cc1ccc(-c2ccccc2)cc1)OCCCO [ABD-0041, 1,3-Propanediol mono(biphenyl-4-yl-acetic acid)Ester] | 75 µM | – | –
O=C(Cc1ccc(-c2ccccc2)cc1)OCCCCO [ABD-0042, 1,4-Butanediol mono(biphenyl-4-yl-acetic acid)Ester] | 45 µM | 45 µM | macrophage J774 viability, activity in words [1]: very active
O=C(Cc1ccc(-c2ccccc2)cc1)OCCCCCO [ABD-0043, 1,5-Pentanediol mono(biphenyl-4-yl-acetic acid)Ester] | > 100 µM | – | –
O=C(Cc1ccc(-c2ccccc2)cc1)OCCCCCCO [ABD-0044, 1,6-Hexanediol mono(biphenyl-4-yl-acetic acid)Ester] | 28 µM | – | macrophage J774 viability, activity in words [1]: very active
CC(=O)OCCCCOC(=O)c1ccc(-c2ccccc2)cc1 [ABD-0049, Biphenyl-4-carboxylic acid (4-acetoxy)butyl ester] | – | 50 µM | –
COCCCCOC(=O)c1ccc(-c2ccccc2)cc1 [ABD-0050, 4-Methoxybutyl (biphenyl-4-carboxylic acid) ester] | – | > 100 µM | –
CCCCOC(=O)c1ccc(-c2ccccc2)cc1 [ABD-0053, Butyl (biphenyl-4-carboxylic acid) ester] | > 100 µM | – | macrophage J774 viability, activity in words [1]: very little activity

SMILES | IC50 [1] | IC50 [2] | also measured
O=C(OCCCCCO)c1ccc(-c2ccccc2)cc1 [ABD-0055, 1,5-Pentanediol mono(biphenyl-4-carboxylic acid)Ester] | 65 µM | – | –
O=C(OCCCO)c1ccc(-c2ccccc2)cc1 [ABD-0057, 1,3-Propanediol mono(biphenyl-4-carboxylic acid)Ester] | > 100 µM | – | –
O=C(OCCCCO)c1ccccc1-c1ccccc1 [ABD-0059, 1,4-Butanediol (biphenyl-2-carboxylic acid) ester] | > 100 µM | – | activity at 100 μM concentration [1]: little activity
O=C(OCCCCO)c1ccc(I)cc1 [ABD-0069, 1,4-Butanediol mono(4-iodobenzoic acid)Ester] | – | 90 µM | –
Cc1ccc(-c2ccc(C(=O)OCCCCO)cc2)cc1 [ABD-0070, 1,4-Butanediol mono(4′-methyl-biphenyl-4-carboxylic acid)Ester] | – | > 100 µM | –
O=C(OCCCCO)c1ccc(-c2ccc(O)cc2)cc1 [ABD-0072, 1,4-Butanediol mono(4′-hydroxy-biphenyl-4-carboxylic acid)Ester] | – | 45 µM | –
O=C(OCCCCO)c1c(F)c(F)c(F)c(F)c1F [ABD-0077, 1,4-Butanediol mono(pentafluorobenzoic acid)Ester] | – | 25 µM | –
O=C(OCCCCOC(=O)c1c(F)c(F)c(F)c(F)c1F)c1c(F)c(F)c(F)c(F)c1F [ABD-0085, 1,4-Butanediol di(pentafluorobenzoic acid)Ester] | – | 4 µM | –
O=C(OCCCCBr)c1ccc(-c2ccccc2)cc1 [ABD-0086, 4-Bromobutyl (biphenyl-4-carboxylic acid) ester] | – | > 100 µM | –
O=C(OCCCCO[N+](=O)[O-])c1ccc(-c2ccccc2)cc1 [ABD-0087, 4-Nitrooxybutyl (biphenyl-4-carboxylic acid) ester] | – | 30 µM | –
Cc1ccc(-c2ccc(C(=O)OCCCCO)cc2)cc1C [ABD-0089, 1,4-Butanediol mono(3′,4′-dimethyl-biphenyl-4-carboxylic acid)Ester] | – | 9 µM | –
CCCCCOC(=O)c1ccc(-c2ccccc2)cc1 [ABD-0090, Pentyl (biphenyl-4-carboxylic acid) ester] | – | 45 µM | –
CCc1ccc(-c2ccc(C(=O)OCCCCO)cc2)cc1 [ABD-0094, 1,4-Butanediol mono(4′-ethyl-biphenyl-4-carboxylic acid)Ester] | – | > 100 µM | –
O=C(OCC(F)(F)C(F)(F)CO)c1ccc(-c2ccccc2)cc1 [ABD-0095, 2,2,3,3-Tetrafluoro-butane-1,4-diol mono(biphenyl-4-carboxylic acid)Ester] | – | 40 µM | –
COc1ccc(-c2ccc(C(=O)OCCCCO)cc2)cc1 [ABD-0097, 1,4-Butanediol mono(4′-methoxy-biphenyl-4-carboxylic acid)Ester] | – | > 100 µM | –
O=C(OCCCCO)c1ccc(-c2ccccc2[N+](=O)[O-])cc1 [ABD-0098, 1,4-Butanediol mono(2′-nitro-biphenyl-4-carboxylic acid)Ester] | – | 17 µM | –
O=C(OCCCCO)c1ccc(-c2ccccc2F)cc1 [ABD-0099, 1,4-Butanediol mono(2′-fluoro-biphenyl-4-carboxylic acid)Ester] | – | 14 µM | –
O=C(OCCCCO)c1ccc(-c2ccc(F)cc2)cc1 [ABD-0100, 1,4-Butandiol mono(4′-fluoro-biphenyl-4-carboxylic acid)Ester] | – | 14 µM | –
O=C(OCCCCO)c1ccc(-c2ccc(Br)cc2)cc1 [ABD-0102, 1,4-Butanediol mono(4′-bromo-biphenyl-4-carboxylic acid)Ester] | – | 14 µM | –
O=C(OCCCCO)c1c(F)ccc(F)c1F [ABD-0106, 1,4-Butanediol mono(2,3,6-trifluorobenzoic acid)Ester] | – | > 100 µM | –
O=C(OCCCCO)c1ccc(F)c(F)c1 [ABD-0107, 1,4-Butanediol mono(3,4-difluorobenzoic acid)Ester] | – | > 100 µM | –
O=C(OCCCCO)c1ccc(F)c(F)c1F [ABD-0108, 1,4-Butanediol mono(2,3,4-trifluorobenzoic acid)Ester] | – | > 100 µM | –
O=C(OCCCCO)c1cc(F)c(F)cc1F [ABD-0109, 1,4-Butanediol mono(2,4,5-trifluorobenzoic acid)Ester] | – | > 100 µM | –
O=C(OCCCCO)c1ccc(F)cc1F [ABD-0110, 1,4-Butanediol mono(2,4-difluorobenzoic acid)Ester] | – | > 100 µM | –
O=C(OCCCCOC(=O)c1ccc(F)cc1F)c1ccc(F)cc1F [ABD-0111, 1,4-Butanediol di(2,4-difluorobenzoic acid)Ester] | – | > 100 µM | –
O=C(O)c1ccc(-c2ccccc2)cc1 [biphenylcarboxylic acid, reference compound] | – | – | macrophage J774 viability, activity in words [1]: not active
